Article doi:10.1101/2021.12.13.472376v1 (bioRxiv, 2021)

How the values were obtained:
[1] = Water solubility / dissolution of the peptide; type: physicochemical
[2] = test system: GBM; details: GBM patients treated with radiotherapy combined with TMZ; ref Stupp et al., 2005; cited from earlier work

water solubility [1]	dissolution of 1 mg peptide in 1000 μL 10% DMSO DPBS ([1]; 1 mg in 1000 μL 10% DMSO DPBS, only a mixture with loose precipitation obtained)	dissolution of 1 mg peptide in 200 μL normal saline or DPBS ([1]; 1 mg in 200 μL normal saline or DPBS)	Molecule	median survival [2] [months]
poor	could not completely dissolve	–	RQIKIWFQNRRMKWGGTALDWSWLQTE [NBD]	–
–	–	–	Cn1nnc2c(C(N)=O)ncn2c1=O [TMZ]	14.6
good	–	completely dissolve	YLGASVPSPDPLEPTGGTALDWSWLQTE [MTL-NBD]	–
